We go through 22 compounds from patent US20150148311A1, “NON-SYSTEMIC TGR5 AGONISTS” (Ardelyx, Inc., priority 2011, published 2015).

Structures are written as SMILES.

The target in one experiment is T1, human TGR5 (Homo sapiens, UniProt Q8TDU6).
T1 construct: expressed in transfected cells
T1 sequence (Q8TDU6 1-330): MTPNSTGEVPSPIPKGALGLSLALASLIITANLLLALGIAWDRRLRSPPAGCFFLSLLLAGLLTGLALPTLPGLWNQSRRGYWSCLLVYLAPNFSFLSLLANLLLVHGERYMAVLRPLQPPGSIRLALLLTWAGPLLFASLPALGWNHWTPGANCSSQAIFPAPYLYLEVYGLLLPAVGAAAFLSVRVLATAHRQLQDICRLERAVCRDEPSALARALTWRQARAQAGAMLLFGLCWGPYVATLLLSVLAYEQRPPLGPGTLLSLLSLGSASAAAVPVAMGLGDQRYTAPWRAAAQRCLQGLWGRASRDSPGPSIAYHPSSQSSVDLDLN
Nature of the experiment: Cell-based TGR5 assay, HEK293 cells stably expressing human TGR5, cAMP by HTRF. The following applies: HEK293 cells stably expressing human TGR5, 30 min at 37 C, 0.05 nM to 10 μM, read-out: pEC50 Human TGR5 (converted). Here is the method:
Two primary cell based screens were performed. The first utilized HEK293 cells stably transfected to heterologously express human TGR5. The second screen used the human caecum carcinoma cell line NCI-H716 which endogenously expresses human TGR5. In both assays, cells are treated with candidate TGR5 activators and assessed for the increased intercellular levels of cAMP.
HEK293 cells were transfected with a vector that expresses a gene encoding human TGR5, and a stable cell line was isolated using drug selection following standard techniques. Cells were grown overnight at 37° C./5% CO2 prior to assay.
(§1) TGR5-mediated cAMP generation was measured using a homogeneous time resolved fluorescence (HTRF) detection method (Cisbio). Test compounds were dissolved in DMSO to a final concentration of 10 mM. Serial 3-fold dilutions of the stock solution were made in DMSO, and these solutions were diluted 100-fold into Hanks Balanced Salt Solution supplemented with 10 mM HEPES pH 7.4 and 0.5 mM isobutyl methylxanthine (IBMX). Prior to assay, culture medium was replaced with fresh medium, and test compounds diluted in HBSS/HEPES/IBMX were added to the cells and incubated at 37° C. for 30 minutes.
(§2) Following incubation with test compounds, cAMP was detected through the successive addition of cAMP labeled with the modified allophyocyanin dye d2 (cAMP-d2) and cryptate-labeled anti-cAMP in lysis buffer, and reading HTRF per the manufacturer's instructions. A standard curve was used to convert the raw HTRF data into [cAMP].

The target of experiment [1] is T2, endogenously expressed TGR5 in NCI H716 (Homo sapiens, UniProt Q8TDU6).
T2 construct: human caecum carcinoma cell line NCI-H716 which endogenously expresses human TGR5; endogenous in cells; host or cells: NCI-H716
T2 sequence (Q8TDU6 1-330): T1 sequence (Q8TDU6 1-330)
As to the kind of experiment: Cell-based TGR5 assay, NCI-H716 cells endogenously expressing human TGR5, cAMP by HTRF. The conditions noted are these: 30 min at 37 C, 22 nM to 50 μM, read-out: pEC50 endogenously expressed TGR5 in NCI H716 (converted). As to the method:
Two primary cell based screens were performed. The first utilized HEK293 cells stably transfected to heterologously express human TGR5. The second screen used the human caecum carcinoma cell line NCI-H716 which endogenously expresses human TGR5. In both assays, cells are treated with candidate TGR5 activators and assessed for the increased intercellular levels of cAMP. […]
as §1, §2

`O=C(N1CCN(C2CC2)c2ccccc21)C1(OCc2cc(C(F)(F)F)ccc2Cl)CC1` [Example 43, 1-[(1-[[2-chloro-5-(trifluoromethyl)phenyl]methoxy]cyclopropyl)carbonyl]-4-cyclopropyl-1,2,3,4-tetrahydroquinoxaline]: the EC50 (at human TGR5; in experiment [1]) was under 100 nM each time.
Regarding `N#Cc1cccc(COC2(C(=O)N3CCN(C4CC4)c4ccccc43)CC2)c1` [Example 45, 3-((1-(4-cyclopropyl-1,2,3,4-tetrahydroquinoxaline-1-carbonyl)cyclopropoxy)methyl)benzonitrile], the results for the EC50 (at human TGR5; in experiment [1]) were 126 to 1000 nM and 1260 to 50100 nM, respectively.
The like results for `O=C([C@@H]1CCCN1Cc1cc(Cl)ccc1C(F)(F)F)N1CCN(C2CC2)c2ccccc21` [Example 46, (S)-(1-(5-chloro-2-(trifluoromethyl)benzyl)pyrrolidin-2-yl)(4-cyclopropyl-3,4-dihydroquinoxaline-1(2H)-yl)methanone] were, in that order, under 100 nM and 126 to 1000 nM.
The like results for `O=C([C@@H]1CCCN1Cc1c(Cl)cccc1Cl)N1CCN(C2CC2)c2ccccc21` [Example 47, (S)(4-cyclopropyl-3,4-dihydroquinoxaline-1(2H)-yl)(1-(2,6-dichlorobenzyl)pyrrolidin-2-yl) methanone] were, in that order, over 10000 nM and 1260 to 50100 nM.
As to `CN(C[C@H](O)[C@@H](O)[C@H](O)[C@H](O)CO)C(=O)CCc1cc(Cl)c(CN2CCC[C@H]2C(=O)N2CCN(C3CC3)c3ccccc32)cc1Cl` [Example 48, 3-(2,5-dichloro-4-(((S)-2-(4-cyclopropyl-1,2,3,4-tetrahydroquinoxaline-1carbonyl)pyrrolidin-1-yl)methyl)phenyl)-N-methyl-N-((2S,3R,4R,5R)-2,3,4,5,6-pentahydroxyhexyl)propanamide], the EC50 was 126 to 1000 nM on human TGR5 and 1260 to 50100 nM in experiment [1].
The like results for `O=C(N1CCN(C2CC2)c2ccccc21)C1(OCc2cc(Cl)ccc2Cl)CNC1` [Example 50, (4-cyclopropyl-3,4-dihydroquinoxalin-1(2H)-yl)(3-(2,5-dichlorobenzyloxyl)azetidin-3-yl)methanone] were, in that order, 126 to 1000 nM and 1260 to 50100 nM.
The like results for `CN1CC(OCc2cc(Cl)ccc2Cl)(C(=O)N2CCN(C3CC3)c3ccccc32)C1` [Example 51, (4-cyclopropyl-3,4-dihydroquinoxalin-1(2H)-yl)(3-(2,5-dichlorobenzyloxy)-1-methylazetidin-3-yl)methanone] were, in that order, 126 to 1000 nM and 1260 to 50100 nM.
The like results for `CCN1CC(OCc2cc(Cl)ccc2Cl)(C(=O)N2CCN(C3CC3)c3ccccc32)C1` [Example 52, (4-cyclopropyl-3,4-dihydroquinoxalin-1(2H)-yl)(3-(2,5-dichlorobenzyloxy)-1-ethylazetidin-3-yl)methanone] were, in that order, 126 to 1000 nM and 1260 to 50100 nM.
`CC(C)N1CC(OCc2cc(Cl)ccc2Cl)(C(=O)N2CCN(C3CC3)c3ccccc32)C1` [Example 53, (4-cyclopropyl-3,4-dihydroquinoxalin-1(2H)-yl)(3-(2,5-dichlorobenzyloxy)-1-isopropylazetidin-3-yl)methanone]: the EC50 (at human TGR5; in experiment [1]) was 1260 to 50100 nM each time.
As to `CC(=O)N1CC(OCc2cc(Cl)ccc2Cl)(C(=O)N2CCN(C3CC3)c3ccccc32)C1` [Example 54, 1-(3-(4-cyclopropyl-1,2,3,4-tetrahydroquinoxaline-1-carbonyl)-3-(2,5-dichlorobenzyloxyl)azetidin-1-yl)ethanone], the EC50 on human TGR5 is 126 to 1000 nM; in experiment [1], 1260 to 50100 nM.
The like results for `CS(=O)(=O)N1CC(OCc2cc(Cl)ccc2Cl)(C(=O)N2CCN(C3CC3)c3ccccc32)C1` [Example 55, (4-cyclopropyl-3,4-dihydroquinoxalin-1(2H)-yl)(3-(2,5-dichlorobenzyloxy)-1-(methylsulfonyl)azetidin-3-yl)methanone] were, in that order, 126 to 1000 nM and 1260 to 50100 nM.
The like results for `Cc1cccc(CC2CCCN2C(=O)N2CCN(C3CC3)c3ccccc32)c1` (centres unmarked) [Example 58] were, in that order, 1260 to 50100 nM and 1260 to 50100 nM.
The like results for `O=C(O)CCc1ccc(Cl)c(CNC2(C(=O)N3CCN(C4CC4)c4ccccc43)CC2)c1` [Example 59, 3-(4-chloro-3-(((1-(4-cyclopropyl-1,2,3,4-tetrahydroquinoxaline-1-carbonyl)cyclopropyl)amino)methyl)phenyl)propanoic acid] were, in that order, 126 to 1000 nM and 1260 to 50100 nM.
Consider `CN(C[C@H](O)[C@@H](O)[C@H](O)[C@H](O)CO)C(=O)CCc1ccc(Cl)c(CNC2(C(=O)N3CCN(C4CC4)c4ccccc43)CC2)c1` [Example 60, 3-(4-chloro-3-(((1-(4-cyclopropyl-1,2,3,4-tetrahydroquinoxaline-1-carbonyl)cyclopropyl)amino)methyl)phenyl)-N-methyl-N-((2S,3R,4R,5R)-2,3,4,5,6-pentahydroxyhexyl)propanamide], for which the EC50 (at human TGR5; in experiment [1]) was 126 to 1000 nM each time.
For `NCCCc1ccc(Cl)c(CNC2(C(=O)N3CCN(C4CC4)c4ccccc43)CC2)c1` [Example 68, (1-((5-(3-aminopropyl)-2-chlorobenzyl)amino)cyclopropyl)(4-cyclopropyl-3,4-dihydroquinoxalin-1(2H)-yl)methanone], the EC50 (on human TGR5; in experiment [1]) was 1260 to 50100 nM throughout.
As for `CN(C[C@H](O)[C@@H](O)[C@H](O)[C@H](O)CO)C(=O)NCCCc1ccc(Cl)c(CNC2(C(=O)N3CCN(C4CC4)c4ccccc43)CC2)c1` [Example 69, 3-(3-(4-chloro-3-(((1-(4-cyclopropyl-1,2,3,4-tetrahydroquinoxaline-1-carbonyl)cyclopropyl)amino)methyl)phenyl)propyl)-1-methyl-1-((2S,3R,4R,5R)-2,3,4,5,6-pentahydroxyhexyl)urea], the EC50 (at human TGR5; in experiment [1]) was 1260 to 50100 nM throughout.
Regarding `O=C(CCc1ccc(Cl)c(CNC2(C(=O)N3CCN(C4CC4)c4ccccc43)CC2)c1)NC[C@H](O)[C@@H](O)[C@H](O)[C@H](O)CO` [Example 70, 3-(4-chloro-3-(((1-(4-cyclopropyl-1,2,3,4-tetrahydroquinoxaline-1-carbonyl)cyclopropyl)amino)methyl)phenyl)-N-((2S,3R,4R,5R)-2,3,4,5,6-pentahydroxyhexyl)propanamide], the EC50 (at human TGR5; in experiment [1]) was 1260 to 50100 nM in each case.
Regarding `CN(C[C@H](O)[C@@H](O)[C@@H](O)[C@H](O)CO)C(=O)CCc1ccc(Cl)c(CNC2(C(=O)N3CCN(C4CC4)c4ccccc43)CC2)c1` [Example 71, 3-(4-chloro-3-(((1-(4-cyclopropyl-1,2,3,4-tetrahydroquinoxaline-1-carbonyl)cyclopropyl)amino)methyl)phenyl)-N-methyl-N-((2S,3R,4S,5R)-2,3,4,5,6-pentahydroxyhexyl)propanamide], the EC50 (at human TGR5; in experiment [1]) was 126 to 1000 nM throughout.
`CN(C(=O)C1(OCc2cc(Cl)ccc2Cl)CC1)c1ccccc1OC1CCC1` [Example 72, N-(2-cyclobutoxyphenyl)-1-(2,5-dichlorobenzyloxy)-N-methylcyclopropanecarboxamide]: the EC50 (at human TGR5; in experiment [1]) was under 100 nM each time.
With `O=C([C@@H]1CCCN1Cc1cc(Cl)cc(OC(F)(F)F)c1)N1CCN(C2CC2)c2ccccc21` [Example 74, 1-[[(2S)-1-[[3-chloro-5-(trifluoromethoxy)phenyl]methyl]-pyrrolidin-2-yl]carbonyl]-4-cyclopropyl-1,2,3,4-tetrahydroquinoxaline], the EC50 at human TGR5 is 126 to 1000 nM; in experiment [1], over 50100 nM.
The like results for `O=C(N1CCN(C2CC2)c2ccccc21)C1(OCc2cc(Cl)ccc2Cl)CCOCC1` [Example 79, 1-cyclopropyl-4-([4-[(2,5-dichlorophenyl)methoxy]oxan-4-yl]carbonyl)-1,2,3,4-tetrahydroquinoxaline] were, in that order, 126 to 1000 nM and 1260 to 50100 nM.
The like results for `O=C([C@@H]1CCCN1Cc1cc(C(F)(F)F)ccc1Cl)N1CCN(C2CC2)c2ccccc21` [Example 84, 1-[[(2S)-1-[[2-chloro-5-(trifluoromethyl)phenyl]methyl]pyrrolidin-2-yl]carbonyl]-4-cyclopropyl-1,2,3,4-tetrahydroquinoxaline] were, in that order, under 100 nM and 126 to 1000 nM.
